Assay results as given in PubChem BioAssay AID328 (DTP/NCI, 2004).
Where “and” joins values, the source holds several entries; their conditions need not be identical. Equal values may be shown once. Toxic doses and inconclusive results are not listed.

Tested on: BDF1 mice, P388 leukemia ip, median survival T/C
Assay: NCI In Vivo Anticancer Drug Screen. Data for tumor model P388 Leukemia (intraperitoneal) in B6D2F1 (BDF1) mice
Settings: endpoint: median survival time, higher = longer survival
Method in brief: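 Transplantable tumour in mice; compound vs vehicle dosing; survival scored; ratio of treated to control reported.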

[1] = dose: 16.0 mg/kg/injection, schedule: Q01DX009 (ip), vehicle: saline
[2] = dose: 25.0 mg/kg/injection, schedule: Q01DX009 (ip), vehicle: saline
[3] = dose: 50.0 mg/kg/injection, schedule: Q01DX009 (ip), vehicle: saline
[4] = dose: 100.0 mg/kg/injection, schedule: Q01DX009 (ip), vehicle: saline
[5] = dose: 100.0 mg/kg/injection, schedule: Q01DX009 (ip), vehicle: Klucel (hydroxypropylcellulose) (HPC)
[6] = dose: 200.0 mg/kg/injection, schedule: Q01DX009 (ip), vehicle: Klucel (hydroxypropylcellulose) (HPC)
[7] = dose: 400.0 mg/kg/injection, schedule: Q01DX009 (ip), vehicle: Klucel (hydroxypropylcellulose) (HPC)
[8] = dose: 6.25 mg/kg/injection, schedule: Q01DX009 (ip), vehicle: saline with Tween-80
[9] = dose: 12.5 mg/kg/injection, schedule: Q01DX009 (ip), vehicle: saline with Tween-80
[10] = dose: 25.0 mg/kg/injection, schedule: Q01DX009 (ip), vehicle: saline with Tween-80
[11] = dose: 50.0 mg/kg/injection, schedule: Q01DX009 (ip), vehicle: saline with Tween-80
[12] = dose: 12.5 mg/kg/injection, schedule: Q04DX003 (ip), vehicle: saline with Tween-80
[13] = dose: 100.0 mg/kg/injection, schedule: Q01DX009 (ip), vehicle: saline with Tween-80
[14] = dose: 100.0 mg/kg/injection, schedule: Q04DX003 (ip), vehicle: saline with Tween-80
[15] = dose: 200.0 mg/kg/injection, schedule: Q04DX003 (ip), vehicle: saline with Tween-80
[16] = dose: 400.0 mg/kg/injection, schedule: Q04DX003 (ip), vehicle: saline with Tween-80
[17] = dose: 200.0 mg/kg/injection, schedule: Q01DX009 (ip), vehicle: saline with Tween-80

Q: Which T/C (dose: 2.1 mg/kg/injection, schedule: Q01DX009 (ip), vehicle: saline) does the source give for O=C(O)C(CSC(c1ccccc1)(c1ccccc1)c1ccccc1)N=Cc1cccs1 (centres undefined) here?
A: The T/C was 118 % of control.

Q: And the T/C (dose: 3.1 mg/kg/injection, schedule: Q01DX009 (ip), vehicle: saline)?
A: The T/C was 109 % of control.

Q: And the T/C (dose: 7.2 mg/kg/injection, schedule: Q01DX009 (ip), vehicle: saline)?
A: The T/C was 175 % of control.

Q: What about the T/C (dose: 11.0 mg/kg/injection, schedule: Q01DX009 (ip), vehicle: saline) of the same compound?
A: Its T/C is 189 % of control.

Q: What about the T/C [1] of the same compound?
A: The T/C was 163 % of control.

Q: And the T/C [2]?
A: The T/C was 185 % of control.

Q: And the T/C [3]?
A: The T/C was 200 % of control.

Q: What about the T/C (dose: 66.0 mg/kg/injection, schedule: Q01DX009 (ip), vehicle: saline) of the same compound?
A: The T/C was 272 % of control and 177 % of control.

Q: What about the T/C [4] of the same compound?
A: Its T/C is 250 % of control and 90 % of control and 218 % of control.

Q: And the T/C (dose: 150.0 mg/kg/injection, schedule: Q01DX009 (ip), vehicle: saline)?
A: The T/C was 100 % of control.

Q: For CCCn1c2ccccc2c2ccccc21, which T/C [5] is on record?
A: The T/C was 120 % of control.

Q: And the T/C [6]?
A: Its T/C is 100 % of control.

Q: What about the T/C [7] of the same compound?
A: The T/C was 95 % of control.

Q: How did the T/C (dose: 6.25 mg/kg/injection, schedule: Q01DX009 (ip), vehicle: saline) turn out when CCCCCCCCCCCCCC[N+](C)(C)CCCCCCCCCCCCCC was run?
A: The T/C was 120 % of control.

Q: What about the T/C (dose: 16.5 mg/kg/injection, schedule: Q01DX009 (ip), vehicle: saline) of the same compound?
A: The T/C was 87 % of control.

Q: And the T/C (dose: 17.0 mg/kg/injection, schedule: Q01DX009 (ip), vehicle: saline)?
A: Its T/C is 119 % of control.

Q: What about the T/C (dose: 25.0 mg/kg/injection, schedule: Q04DX003 (ip), vehicle: saline) of the same compound?
A: Its T/C is 118 % of control.

Q: What about the T/C (dose: 37.0 mg/kg/injection, schedule: Q01DX009 (ip), vehicle: saline) of the same compound?
A: Its T/C is 119 % of control.

Q: What about the T/C (dose: 50.0 mg/kg/injection, schedule: Q04DX003 (ip), vehicle: saline) of the same compound?
A: The T/C was 104 % of control.

Q: Which T/C (dose: 50.0 mg/kg/injection, schedule: Q01DX009 (ip), vehicle: Klucel (hydroxypropylcellulose) (HPC)) does the source give for COc1cc(N)c2ncsc2c1[N+](=O)[O-] here?
A: The T/C was 89 % of control.

Q: And the T/C [5]?
A: Its T/C is 105 % of control.

Q: And the T/C [6]?
A: Its T/C is 106 % of control.

Q: For CCC12C=CCN3CCC4(c5cc(C(CN6CCCCC6)c6cn(C)c7ccccc67)c(OC)cc5N(C)C4C(O)(C(=O)OC)C1OC(C)=O)C32 (centres undefined), which T/C (dose: 4.0 mg/kg/injection, schedule: Q01DX009 (ip), vehicle: saline) is on record?
A: The T/C was 104 % of control.

Q: What about the T/C (dose: 8.0 mg/kg/injection, schedule: Q01DX009 (ip), vehicle: saline) of the same compound?
A: Its T/C is 98 % of control.

Q: And the T/C [1]?
A: Its T/C is 98 % of control.

Q: And the T/C (dose: 32.0 mg/kg/injection, schedule: Q01DX009 (ip), vehicle: saline)?
A: Its T/C is 93 % of control and 116 % of control.

Q: Which results are given for O=C(O)CCNCc1ccccc1?
A: T/C [2]: 93 % of control; T/C [3]: 108 % of control; T/C [4]: 117 % of control; T/C (dose: 200.0 mg/kg/injection, schedule: Q01DX009 (ip), vehicle: saline): 88 % of control

Q: Which T/C [8] does the source give for Nc1ncnc2oc(-c3ccccc3)c(-c3ccccc3)c12 here?
A: The T/C was 100 % of control.

Q: And the T/C [9]?
A: The T/C was 100 % of control.

Q: And the T/C [10]?
A: Its T/C is 97 % of control.

Q: What about the T/C [11] of the same compound?
A: Its T/C is 92 % of control.

Q: Which results are given for CS(=O)(=O)OCCN(CCOS(C)(=O)=O)c1ccc(C=O)cc1?
A: T/C (dose: 3.0 mg/kg/injection, schedule: Q04DX003 (ip), vehicle: saline with Tween-80): 227 % of control; T/C (dose: 3.13 mg/kg/injection, schedule: Q01DX009 (ip), vehicle: saline with Tween-80): 210 % of control; T/C (dose: 5.0 mg/kg/injection, schedule: Q04DX003 (ip), vehicle: saline with Tween-80): 177 % of control; T/C [8]: 229 % of control; T/C (dose: 8.0 mg/kg/injection, schedule: Q01DX009 (ip), vehicle: saline with Tween-80): 237 % of control; T/C (dose: 8.0 mg/kg/injection, schedule: Q04DX003 (ip), vehicle: saline with Tween-80): 181 % of control; T/C (dose: 8.25 mg/kg/injection, schedule: Q04DX003 (ip), vehicle: saline with Tween-80): 195 % of control; T/C (dose: 12.0 mg/kg/injection, schedule: Q01DX009 (ip), vehicle: saline with Tween-80): 212 % of control; T/C [9]: 231 % of control and 176 % of control; T/C [12]: 212 % of control; T/C (dose: 18.0 mg/kg/injection, schedule: Q01DX009 (ip), vehicle: saline with Tween-80): 250 % of control; T/C (dose: 18.75 mg/kg/injection, schedule: Q04DX003 (ip), vehicle: saline with Tween-80): 250 % of control; T/C [10]: 86 % of control

Q: For Ic1ccccc1C[N+]12CN3CN(CN(C3)C1)C2, which T/C [11] is on record?
A: Its T/C is 108 % of control.

Q: What about the T/C (dose: 60.0 mg/kg/injection, schedule: Q01DX009 (ip), vehicle: alcohol) of the same compound?
A: Its T/C is 95 % of control.

Q: And the T/C (dose: 85.0 mg/kg/injection, schedule: Q01DX009 (ip), vehicle: alcohol)?
A: The T/C was 95 % of control.

Q: What about the T/C [13] of the same compound?
A: The T/C was 120 % of control.

Q: And the T/C [4]?
A: Its T/C is 115 % of control.

Q: And the T/C [14]?
A: Its T/C is 110 % of control.

Q: What about the T/C (dose: 100.0 mg/kg/injection, schedule: Q04DX003 (ip), vehicle: saline) of the same compound?
A: The T/C was 118 % of control.

Q: And the T/C (dose: 132.0 mg/kg/injection, schedule: Q01DX009 (ip), vehicle: saline with Tween-80)?
A: The T/C was 111 % of control.

Q: And the T/C [15]?
A: The T/C was 110 % of control.

Q: What about the T/C (dose: 200.0 mg/kg/injection, schedule: Q04DX003 (ip), vehicle: saline) of the same compound?
A: Its T/C is 113 % of control.

Q: And the T/C (dose: 300.0 mg/kg/injection, schedule: Q01DX009 (ip), vehicle: saline with Tween-80)?
A: The T/C was 100 % of control and 123 % of control.

Q: And the T/C [16]?
A: The T/C was 95 % of control.

Q: What about the T/C (dose: 400.0 mg/kg/injection, schedule: Q04DX003 (ip), vehicle: saline) of the same compound?
A: The T/C was 113 % of control.

Q: Which T/C [11] does the source give for CC=NC(C[S-])C(=O)O.CC=NC(C[S-])C(=O)O.[Fe+2] (centres undefined) here?
A: Its T/C is 110 % of control.

Q: What about the T/C [13] of the same compound?
A: The T/C was 100 % of control and 105 % of control.

Q: What about the T/C [17] of the same compound?
A: Its T/C is 100 % of control and 104 % of control.

Q: Which T/C [13] does the source give for COC(OC)c1nc(N)[nH]c(=O)c1Cc1ccc(C)c2ccccc12 here?
A: The T/C was 96 % of control.

Q: What about the T/C [14] of the same compound?
A: The T/C was 109 % of control.

Q: And the T/C [17]?
A: The T/C was 88 % of control.

Q: What about the T/C [15] of the same compound?
A: Its T/C is 100 % of control.

Q: And the T/C [16]?
A: The T/C was 100 % of control.

Q: Which results are given for COC(=O)[C@@H]1[C@H](O)[C@H](C)[C@H](O)[C@@](C)(O)/C=C\C=C(C)C(=O)Nc2c(C)c(OC(C)=O)c3c(c2O)C(=O)C(C)=C2OCOC(=C23)C(C)=C[C@@](C)(O)[C@H](O)[C@@H](C)[C@H]1OC(C)=O?
A: T/C [5]: 93 % of control and 105 % of control; T/C [6]: 120 % of control and 108 % of control; T/C [7]: 121 % of control and 113 % of control; T/C (dose: 400.0 mg/kg/injection, schedule: Q01DX009 (ip), vehicle: saline): 90 % of control

Q: Which results are given for CCC1CC(O)c2c(O)c3c(c(O)c2C1O)C(=O)c1cccc(O)c1C3=O (centres undefined) (tested in a mixture with another compound)?
A: T/C (dose: 0.5 mg/kg/injection, schedule: Q01DX001 (ip), vehicle: saline): 100 % of control; T/C (dose: 1.0 mg/kg/injection, schedule: Q01DX001 (ip), vehicle: saline): 109 % of control; T/C (dose: 2.0 mg/kg/injection, schedule: Q01DX001 (ip), vehicle: saline): 109 % of control

Q: For C=CC[N+](CC=C)(CC=C)CC[N+](CC=C)(CC=C)CC=C, which T/C (dose: 12.5 mg/kg/injection, schedule: Q01DX009 (ip), vehicle: water) is on record?
A: Its T/C is 102 % of control.

Q: And the T/C [12]?
A: Its T/C is 104 % of control.

Q: What about the T/C (dose: 25.0 mg/kg/injection, schedule: Q01DX009 (ip), vehicle: water) of the same compound?
A: The T/C was 105 % of control.

Q: And the T/C (dose: 25.0 mg/kg/injection, schedule: Q04DX003 (ip), vehicle: saline with Tween-80)?
A: Its T/C is 104 % of control.

Q: What about the T/C (dose: 50.0 mg/kg/injection, schedule: Q01DX009 (ip), vehicle: water) of the same compound?
A: Its T/C is 115 % of control.

Q: What about the T/C (dose: 50.0 mg/kg/injection, schedule: Q04DX003 (ip), vehicle: saline with Tween-80) of the same compound?
A: The T/C was 101 % of control.

Q: CC1(O)c2ccccc2-c2nc3ccccc3nc21 (centres undefined) was tested. Which T/C [13] did it give?
A: Its T/C is 104 % of control.

Q: What about the T/C [17] of the same compound?
A: The T/C was 100 % of control.

Q: What about the T/C (dose: 400.0 mg/kg/injection, schedule: Q01DX009 (ip), vehicle: saline with Tween-80) of the same compound?
A: Its T/C is 118 % of control.
